Assays:
[1] = percent repression of food intake (appetite suppression) in laboratory rats trained to a six hour feeding period; assay type: in vivo, adult male Wistar rats
Excerpt: In this screen, adult male Wistar rats weighing between 250-400 g were housed individually and trained to consume their daily intake of food within a six hour period. Food was then withdrawn for the remaining eighteen hour period of each day. Drinking water was available at all times, and the animals were maintained on a twelve hour light/twelve hour dark cycle. This training regimen was maintained for a seven-day period. Powdered, rather than pelletized, food was used to minimize spillage and to facilitate measurement of food intake.
On each test day, a group of twelve rats was used, six receiving a single dose of test compound and six serving as a control group. Immediately after dosing, the rats were allowed access to food. Food intake was then monitored over the next six-hour period. The food hoppers were weighed at intervals of 30 minutes, and at 1, 2, 3, 4, 5, and 6 hours after administration of the test compound. The percent repression of food intake of laboratory rats under these conditions for the prior art octapeptide, CCK26-33, and for several compounds of the present invention appear in Table 2.

CCK receptor = target: T1, CCK receptor (Mus musculus, UniProt P56481); assay: displacement of tritiated pentagastrin binding to mouse cerebral cortical membranes (CCK receptor binding screening test); parameters: species or system male CFLP mice; conditions: tritiated pentagastrin (2 nM) displacement, Cheng-Prusoff
T1 construct: the cerebral cortices from male CFLP mice weighing between 30-40 g were dissected on ice, weighed and homogenized; from tissue; host or cells: cerebral cortex membranes of male CFLP mice
T1 sequence (P56481 1-453): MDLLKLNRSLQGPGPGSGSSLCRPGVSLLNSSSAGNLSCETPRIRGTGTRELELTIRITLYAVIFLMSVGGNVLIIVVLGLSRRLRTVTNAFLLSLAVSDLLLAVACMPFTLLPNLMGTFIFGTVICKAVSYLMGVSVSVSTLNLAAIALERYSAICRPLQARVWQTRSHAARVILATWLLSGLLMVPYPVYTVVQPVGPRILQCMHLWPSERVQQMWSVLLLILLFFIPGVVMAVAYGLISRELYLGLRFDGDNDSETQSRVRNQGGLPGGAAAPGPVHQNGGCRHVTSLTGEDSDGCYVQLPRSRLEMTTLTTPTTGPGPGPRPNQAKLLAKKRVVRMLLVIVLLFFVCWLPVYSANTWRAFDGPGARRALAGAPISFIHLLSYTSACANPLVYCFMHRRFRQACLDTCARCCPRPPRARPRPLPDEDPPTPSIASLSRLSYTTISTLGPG
Description: The biological activities of compounds of this invention were evaluated employing an initial screening test which rapidly and accurately measured the binding of the tested compound to known CCK receptor cites. […] (See Hays et al., Neuropeptides, 1: 53-62 (1980); and Sauter et al., Science, 208: 1155-1156 (1980).
In the screening test, the cerebral cortices from male CFLP mice weighing between 30-40 g were dissected on ice, weighed and homogenized in 10 volumes of 50 mM Tris-HCl buffer (pH 7.4 at 0°-4° C.). The resulting suspension was centrifuged, the supernate was discarded, and the pellet was washed by resuspension in Tris-HCl buffer followed by recentrifugation.
The final pellet was resuspended in 10 volumes of 10 mM Hepes buffer (pH 7.2 at 23° C.) containing 130 mM NaCl, 4.7 mM KCl, 1 mM EDTA, 5 mg/ml bovine albumin, and bacitracin (0.25 mg/ml). […]
Following incubation, radioactivity bound to membranes was separated from that free in solution by rapid filtration through Whatman GF/B filters and washed three times with 4-ml portions of ice-cold Tris-HCl buffer. Filters from samples incubated with tritiated pentagastrin were placed in polyethylene vials with 8 ml of scintillation cocktail, and the radioactivity was estimated by scintillation spectrometry (efficiency 47-52%). […]
Saturation curves for specific tritiated pentagastrin binding to mouse cortical membranes were analyzed by statisitcal methods to provide estimates for the maximum number of binding sites (Bmax) and the equilibrium dissociation constant (Kd).
In the displacement experiements, inhibition curves were analyzed by logit-log plots to provide estimates of the IC50 and nH (apparent Hill coefficient) values. […]
The inhibition constant, Ki, of the test compound was then calculated according to the Cheng-Prusoff equation: [formula] where [L] is the molar concentration of radiolabel and Kd is the equilibrium dissociation constant.

Molecule	Ki (CCK receptor) [µM]	Percent Repression of Food Intake After 0.5 Hours ([1]; I.P. 100 mg/kg) [%]	Percent Repression of Food Intake After 1.0 Hours ([1]; I.P. 100 mg/kg) [%]	Percent Repression of Food Intake After 3.0 Hours ([1]; I.P. 100 mg/kg) [%]	Percent Repression of Food Intake After 6.0 Hours ([1]; I.P. 100 mg/kg) [%]	Percent Repression of Food Intake After 0.5 Hours ([1]; I.P. 300 mg/kg) [%]	Percent Repression of Food Intake After 1.0 Hours ([1]; I.P. 300 mg/kg) [%]	Percent Repression of Food Intake After 3.0 Hours ([1]; I.P. 300 mg/kg) [%]	Percent Repression of Food Intake After 6.0 Hours ([1]; I.P. 300 mg/kg) [%]	further results
CCK26-33: prior art octapeptide, carboxyl-terminus fragment of cholecystokinin [reference compound]										Percent Repression of Food Intake After 0.5 Hours ([1]; I.P. 5 mg/kg): 50%; Percent Repression of Food Intake After 1.0 Hours ([1]; I.P. 5 mg/kg): 40%; Percent Repression of Food Intake After 3.0 Hours ([1]; I.P. 5 mg/kg): 3%; Percent Repression of Food Intake After 6.0 Hours ([1]; I.P. 5 mg/kg): 12%
CC(Cc1c[nH]c2ccccc12)(NC(=O)OC(C)(C)C(Cl)(Cl)Cl)C(=O)NCCc1ccccn1 (racemic) [Example 19, (±)-[1-(1H-Indol-3-ylmethyl)-1-methyl-2-oxo-2-[[2-(2-pyridinyl)ethyl]amino]ethyl]carbamic acid, 2,2,2-trichloro-1,1-dimethylethyl ester]						35	49	60	55	Percent Repression of Food Intake After 0.5 Hours ([1]; P.O. 300 mg/kg): 78%; Percent Repression of Food Intake After 1.0 Hours ([1]; P.O. 300 mg/kg): 68%; Percent Repression of Food Intake After 3.0 Hours ([1]; P.O. 300 mg/kg): 52%; Percent Repression of Food Intake After 6.0 Hours ([1]; P.O. 300 mg/kg): 52%

The next lines start with results.

Ki (CCK receptor) [µM]	Molecule	Percent Repression of Food Intake After 0.5 Hours ([1]; I.P. 100 mg/kg) [%]	Percent Repression of Food Intake After 1.0 Hours ([1]; I.P. 100 mg/kg) [%]	Percent Repression of Food Intake After 3.0 Hours ([1]; I.P. 100 mg/kg) [%]	Percent Repression of Food Intake After 6.0 Hours ([1]; I.P. 100 mg/kg) [%]	Percent Repression of Food Intake After 0.5 Hours ([1]; I.P. 300 mg/kg) [%]	Percent Repression of Food Intake After 1.0 Hours ([1]; I.P. 300 mg/kg) [%]	Percent Repression of Food Intake After 3.0 Hours ([1]; I.P. 300 mg/kg) [%]	Percent Repression of Food Intake After 6.0 Hours ([1]; I.P. 300 mg/kg) [%]	further results
6	CC(C)(C)OC(=O)N[C@@](C)(Cc1c[nH]c2ccccc12)C(=O)N[C@@H](Cc1ccccc1)C(N)=O (single isomer, unassigned) [Example 2, N-[(1,1-Dimethylethoxy)carbonyl]-α-methyltryptophyl-L-phenylalaninamide]	66	54	1	0					Percent Repression of Food Intake After 0.5 Hours ([1]; I.P. 4 mg/kg): 24%; Percent Repression of Food Intake After 1.0 Hours ([1]; I.P. 4 mg/kg): 13%; Percent Repression of Food Intake After 3.0 Hours ([1]; I.P. 4 mg/kg): 19%; Percent Repression of Food Intake After 6.0 Hours ([1]; I.P. 4 mg/kg): 14%
6.5	CCC(C)(C)OC(=O)NC(C)(Cc1c[nH]c2ccccc12)C(=O)NCCc1ccccc1 (stereo not shown) [Example 6, [1-(1H-Indol-3-ylmethyl)-1-methyl-2-oxo-2-[(2-phenylethyl)amino]ethyl]-carbamic acid, 1,1-dimethylpropyl ester]	8	22	36	13					
6.8	CCC(C)(C)OC(=O)NC(C)(Cc1c[nH]c2ccccc12)C(=O)NC(CO)Cc1ccccc1 (stereo not shown) [Example 7, [2-[[1-(Hydroxymethyl)-2-phenylethyl]-amino]-1-(1H-indol-3-ylmethyl)-1-methyl-2-oxoethyl]-carbamic acid, 1,1-dimethylpropyl ester]					64	45	23	11	

Reference: US4757151A, “2-substituted-[2-substituted-amino]-N-arylalkyl-3-[indol-3-yl]” (Warner-Lambert Company, priority 1986, dated 1988)
